The results in this text go back to patent publication US8632982B2, “Biomarkers for liver injury” (Institute for Systems Biology, priority 2009, dated 2014).

For the data set, the system named is C57BL6/J mice. In words: Murine model: liver damage induced with acetaminophen, serum markers by SPR antibody array and Western blot. It counts as in vivo. The following applies: male C57BL6/J mice, 300 mg/kg intraperitoneally. The method, then: The effectiveness of various proteins as markers was tested by inducing liver damage in mice using acetaminophen and then assessing serum for various proteins by surface plasmon resonance (SPR) detection of complex formation with the relevant antibody and confirmed by Western blot. The known marker, AST, was used as a control.
Nine week old male C57BL6/J mice were fasted for 24 hours and then administered 300 mg/kg acetaminophen intraperitoneally. The mice were euthanized with CO2 and whole blood was collected via cardiac puncture at various time intervals. The whole blood was incubated at 4° C. for 12 hours and centrifuged at 2,000 g for 10 minutes to obtain serum which was stored at −80° C. and then analyzed by SPR antibody array as described above and validated by Western blot. (The concentration of the known marker serum […] (AST) was determined by enzymatic assay.)

On to `CC(=O)Nc1ccc(O)cc1` [acetaminophen], for which the “plasma levels of plasminogen and RBP4 (Western blot, FIG. 3)” value (12-24 hours) is recorded as “decrease”. Also, the “serum levels of control marker AST (enzymatic assay)” value (same time as the novel markers) is “corresponding increase”. Further, for the setting “fasted 24 hours, after 12-24 hours, after which the levels declined”, the “plasma level of the 12 markers whose level increases in the event of liver injury (Western blot, FIG. 3)” value was “elevated levels”.
